Reference: publication PMC5630639 (Scientific Reports, 2017)
pIC50: −log10 of the molar value. “Also recorded” adds a separate entry of the source.

Key:
MGC-803 cells [1] = experiment: Cell cycle analysis by flow cytometry; format: cell-based, human; details: for G2/M population: 24 h (Fig. 3A)
Experimental: MGC-803 cells were incubated in the absence and presence of 28. Subsequently, the cells were fixed with 70% alcohol in PBS. The fixed cells were incubated with RNase (1 µg/mL) propidium iodide (50 µg/mL) for 2 h. Flow cytometry analysis was performed using BD FACS (Becton Dickinson, San Jose, CA, USA).

MGC-803 cells [2] = experiment: Transwell cell migration assay; format: cell-based, human; details: 24 h (control 29.4)
Experimental: (§1) In a transwell test, the average numbers of migrated cells in fields of control, 0.1 and 0.2 μM 28 treated MGC-803 cells were 29.4, 22.4 and 16.6, respectively (Fig. 6B and C). Based on the results from these tests, we next examined the protein expression of EMT-related makers such as E-cadherenin, N-cadherenin, ZO-1 and Vementin[55].
The test was performed in a transwell plate (Corning). MGC-803 cells were added to the upper chamber of a transwell plate. Control and different concentrations of 28 solutions were added to both upper and bottom chambers. Then the transwell plate was cultured at 37 °C in a humidified incubator containing 5% CO2 for 24 h. The next day, all contents in the upper chamber were removed and wiped by cotton buds. Alcohol was used to fix, and the crystal violet was used to stain the transwell for 30 min. After washed by PBS the cell chambers were observed and photos taken. The cell number of the migrated cells through the transwell was calculated by counting 5 visual fields of each group (P < 0.05)[55],[56].

MGC-803 xenograft = MGC-803 xenograft model in nude mice; format: in vivo, BALB/c nude mice; details: for average tumor weight: 21 days (control 1.23 ± 0.28); for mean tumor volume at end of observation period: 21 days (control 1665.98 ± 568.36)
Experimental: To evaluate the potential antitumor effects of 28 in vivo, a MGC-803 xenograft model were established in nude mice by subcutaneously injecting MGC-803 cells at its logarithmic phase into the right flank of mice[56]. Tumor bearing mice were then randomly assigned to five groups (control, 100 mg/kg CA-4P, 25, 50, 100 mg/kg 28) with 10 mice per group. Then, the mice were gavaged with saline (control), CA-4P and different concentrations of 28 in saline solution daily. […] At the end of the observation period, mean tumor volumes of control, CA-4P, 25, 50, and 100 mg/kg 28 groups were 1665.98 ± 568.36 mm^3, 642.61 ± 449.92 mm^3, 788.18 ± 435.92 mm^3, 1125.93 ± 668.25 mm^3 and 1273.88 ± 513.69 mm^3, respectively. […] The antitumor activity of 28 in vivo was similar to that of CA-4P.
Animals were treated according to protocols established by the ethics committee of Zhengzhou University and the in vivo experiments were carried out in accordance with the approved guidelines and approved by the ethics committee of Zhengzhou University. BALB/c nude mice (18 g, aged 4–5 weeks) were purchased from Human SJA Laboratory Animal Co. Ltd. (Hunan, China). Mice were subcutaneously implanted with MGC-803 cells (5 × 10^6 cells per mouse) on the right flank of nude mice. Once tumor volumes reached to approximately 100 mm^3, the mice were randomly divided into corresponding saline, CA-4P (100 mg/kg), 28 (100 mg/kg), 28 (50 mg/kg) and 28 (25 mg/kg) treatment groups (n = 10 mice for each group). The treatment groups received intragastric administration of 28 and CA-4P per day for a period of 21 days. Then, the mice were euthanized and tumors isolated and weighed. Their body weights were measured and tumor sizes determined by vernier caliper measurement every other day.

MGC-803 cells [3] = experiment: Western blot of EMT-related markers; format: cell-based, human
Experimental: as §1

[4] = test system: three cancer cell lines (MGC-803, MCF-7, A549); experiment: CCK-8 proliferation assay, three cancer cell lines together; format: cell-based; details: Homo sapiens, 48 h, read-out: IC50 values toward three cancer cell lines
Experimental: All synthesized β-lactam-azide derivatives were evaluated for their antiproliferative activity against three cancer cell lines (MGC-803, MCF-7, A549) using CCK-8 proliferation assay. The well-known anticancer drug CA-4P was used as a control[36],[37].
MGC-803 cell line was obtained from the Chinese Academy of Sciences (Shanghai, China). MCF-7 and A549 were from the National Cell Center, China. MGC-803 cells were cultured in DMEM culture medium (DMEM, Biological Industries, Kibbutz Beit Haemek, Israel). A549 and MCF-7 cells were cultured in 1640 medium (1640, Biological Industries, Kibbutz Beit Haemek, Israel). All medium were supplemented with 10% fetal bovine serum, 100 U/ml penicillin (North China Pharmaceutical group Co.), and 100 µg/ml streptomycin (North China Pharmaceutical group Co.). All cells were cultured at 37 °C in a humidified incubator containing 5% CO2.
Synthesized analogues used in the study were dissolved in 100% cell culture grade DMSO and the final concentration of DMSO as <0.1% for testing on cancer cell lines. […] The absorbance was measured using a microplate reader (BioTek Instrument, Inc. Vermont, USA) with a test wavelength of 450 nm. The absorbance levels were corrected against untreated control absorbance values. […]

For COc1cc(N2C(=O)[C@H](c3cccs3)[C@H]2c2cccc(N=[N+]=[N-])c2)cc(OC)c1OC (relative stereo) [Compound 28, trans-4-(3-azidophenyl)-3-(thiophen-2-yl)-1-(3,4,5-trimethoxyphenyl)azetidin-2-one], the “cells at the G2/M phase” value (MGC-803 cells [1]; 0.1 μM, 12 h (Fig. 3C)) was 12.63%, the G2/M population (MGC-803 cells [1]; 0.1 μM) was 14.13% and the “cells at the G2/M phase” value (MGC-803 cells [1]; 0.1 μM, 36 h (Fig. 3C)) was 44.59%. For the same molecule, the G2/M population (MGC-803 cells [1]; 0.2 μM) was 23.42%, the G2/M population (MGC-803 cells [1]; 0.3 μM) was 44.37% and the “average number of migrated cells in fields” value (MGC-803 cells [2]; 0.1 μM) was 22.4. The “average number of migrated cells in fields” value (MGC-803 cells [2]; 0.2 μM) was 16.6, the “inhibitory rate (tumor weight)” value (MGC-803 xenograft; 25 mg/kg, intragastric daily, 21 days) was 59.34% and the average tumor weight (MGC-803 xenograft; 25 mg/kg, intragastric daily) was 0.53 ± 0.20 g. For the same molecule, the “mean tumor volume at end of observation period” value (from here on “mean tumor volume at end”) (MGC-803 xenograft; 25 mg/kg, intragastric daily) was 788.18 ± 435.92 mm^3, the “inhibitory rate (tumor weight)” value (MGC-803 xenograft; 50 mg/kg, intragastric daily, 21 days) was 30.78% and the average tumor weight (MGC-803 xenograft; 50 mg/kg, intragastric daily) was 0.85 ± 0.32 g. The “mean tumor volume at end” value (MGC-803 xenograft; 50 mg/kg, intragastric daily) was 1125.93 ± 668.25 mm^3, the tumor growth (MGC-803 xenograft; 100 mg/kg, intragastric daily) was “considerable suppression of tumor growth” and the “inhibitory rate (tumor weight)” value (MGC-803 xenograft; 100 mg/kg, intragastric daily, 21 days) was 10.99%. The average tumor weight (MGC-803 xenograft; 100 mg/kg, intragastric daily) was 1.09 ± 0.31 g, the “mean tumor volume at end” value (MGC-803 xenograft; 100 mg/kg, intragastric daily) was 1273.88 ± 513.69 mm^3 and the “body weight of mice” value (MGC-803 xenograft; oral administration, 21 days) was “without causing significant loss of body weight; also recorded: without causing any obvious loss of body weight”. For the same molecule, the “expression of E-cadherin and ZO-1” value (MGC-803 cells [3]) was “up-regulated”, the “expression of N-cadherin and vimentin” value (MGC-803 cells [3]) was “down-regulated” and the pIC50 [4] was 6.29 to 6.97.
